Assay results published in publication PMC5193077, “An Allosteric Potentiator of the Dopamine D1 Receptor Increases Locomotor Activity in Human D1 Knock-In Mice without Causing Stereotypy or Tachyphylaxis” (The Journal of Pharmacology and Experimental Therapeutics, 2017).

Tests used:
[1] = target: 5HT2B receptor (Homo sapiens, UniProt P41595); experiment: Standard Lilly selectivity panel, 5HT2B receptor
[2] = target: human D1 receptor (Homo sapiens, UniProt P21728); experiment: 3H-SCH23390 binding to human D1 HEK293 cell membranes; details: 1-100 nM DETQ
[3] = test system: hD1 mice; experiment: Locomotor activity (LMA) in hD1 mice; assay type: in vivo, mouse
Description: Male hD1 mice, 8–10 weeks old (weighing 18 to 25 g at the time of the experiment), were used. Monitoring of mouse LMA took place in transparent plastic shoebox cages having dimensions of 45 × 25 × 20 cm, with a 1-cm depth of wood chips for absorbent bedding, and covered with a ventilated filtered plastic cage top.
Cages were placed in a rectangular frame containing a grid of 12 photocell beams in an 8 × 4 configuration (Kinder Scientific, Poway, CA) that were positioned 2.5 cm from the floor of the cage for the detection of body movements (ambulations), which were recorded by computer for analysis. Mice were placed inside individual LMA boxes for 1 hour during an acclimation period. Mice were then dosed with test compounds (oral or subcutaneous) and were replaced inside individual LMA boxes for the start of LMA. Photocell activity (total ambulations) was collected for 60 minutes using software from Hamilton Kinder (Poway, CA).
Calculation of data based on total ambulations was done using Excel (Microsoft, Redmond, WA). Graphing and statistical analysis of data were done using one-way analysis of variance followed by Dunnett’s multiple comparison test using GraphPad Prism.

5HT2B receptor, sequence (P41595 whole entry): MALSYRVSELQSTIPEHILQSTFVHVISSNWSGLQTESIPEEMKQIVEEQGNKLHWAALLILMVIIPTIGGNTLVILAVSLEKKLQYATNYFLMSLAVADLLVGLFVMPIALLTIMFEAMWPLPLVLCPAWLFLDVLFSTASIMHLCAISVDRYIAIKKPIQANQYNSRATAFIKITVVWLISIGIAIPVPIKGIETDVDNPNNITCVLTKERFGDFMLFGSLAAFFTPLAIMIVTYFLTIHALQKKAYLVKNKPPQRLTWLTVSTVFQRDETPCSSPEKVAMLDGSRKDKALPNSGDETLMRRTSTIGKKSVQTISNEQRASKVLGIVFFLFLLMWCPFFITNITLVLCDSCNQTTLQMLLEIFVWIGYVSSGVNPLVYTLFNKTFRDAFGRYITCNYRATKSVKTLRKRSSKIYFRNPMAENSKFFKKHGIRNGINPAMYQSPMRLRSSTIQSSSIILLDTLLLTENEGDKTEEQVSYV
human D1 receptor, sequence (P21728 whole entry): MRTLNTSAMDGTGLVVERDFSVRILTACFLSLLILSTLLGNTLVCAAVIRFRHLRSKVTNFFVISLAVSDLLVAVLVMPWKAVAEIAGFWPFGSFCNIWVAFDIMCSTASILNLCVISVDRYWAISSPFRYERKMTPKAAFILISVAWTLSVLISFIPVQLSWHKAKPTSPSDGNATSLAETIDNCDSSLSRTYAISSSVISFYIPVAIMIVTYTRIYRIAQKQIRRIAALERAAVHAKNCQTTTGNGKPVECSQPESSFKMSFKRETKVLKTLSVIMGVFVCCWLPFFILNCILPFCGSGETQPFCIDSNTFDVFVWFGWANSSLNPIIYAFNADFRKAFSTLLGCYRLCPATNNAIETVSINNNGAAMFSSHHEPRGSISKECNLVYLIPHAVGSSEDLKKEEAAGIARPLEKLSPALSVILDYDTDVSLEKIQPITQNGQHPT

C[C@H]1c2cccc(C(C)(C)O)c2C[C@H](CO)N1C(=O)Cc1c(Cl)cccc1Cl [DETQ, 2-(2,6-dichlorophenyl)-1-((1S,3R)-3-(hydroxymethyl)-5-(2-hydroxypropan-2-yl)-1-methyl-3,4-dihydroisoquinolin-2(1H)-yl)ethan-1-one]
Stimulation at 5HT2B receptor, potentiator mode ([1]; 1 µM): 5%
inhibition at 1 µM ([1]; 1 µM, read-out: Inhibition at 5HT2B receptor, antagonist mode): 13%
Stimulation at 5HT2B receptor, potentiator mode ([1]; 10 µM): 48%
inhibition at 10 µM ([1]; 10 µM, read-out: Inhibition at 5HT2B receptor, antagonist mode): 56%
Effect on affinity of dopamine to inhibit SCH23390 binding [2]: increased the affinity of dopamine
EC50 ([3]; Mus musculus, four-parameter fit, unbound brain concentration, hD1 mice, read-out: EC50 in LMA versus unbound brain levels): 9.2 nM
Overt adverse behavioral effects ([3]; any of the doses (up to 240 mg/kg)): no overt adverse behavioral effects were observed
Bottom of LMA versus unbound brain level curve ([3]; four-parameter fit): 40 % of control
Top of LMA versus unbound brain level curve ([3]; four-parameter fit): 1,590 % of control
LMA response after twice-daily dosing ([3]; hD1 mice, 240 mg/kg oral twice daily): No tachyphylaxis
LMA response on repeated once-a-day dosing ([3]; hD1 mice, once daily for 4 days): undiminished on day 4
Shape of LMA dose-response curve ([3]; hD1 mice, DETQ up to 240 mg/kg): did not show any drop-off at higher doses
ED4X (dose causing a 4-fold increase in LMA) ([3]; habituated hD1 mice, oral): 7.2 mg/kg
